Experimental data reported in paper PMC9530963, “A cathelicidin antimicrobial peptide from Hydrophis cyanocinctus inhibits Zika virus infection by downregulating expression of a viral entry factor” (The Journal of Biological Chemistry, 2022).

Tests used:
ZIKV [1] = test: Susceptibility of A549 cells to ZIKV (peptide pretreatment); assay type: cell-based, ZIKV strain PRVABC59; conditions: 1.25, 2.5, and 5 μM, 2 h before ZIKV MOI = 1; 24 h; Western blot
Protocol: Figure 4 Hc-CATH downregulates AXL in A549 cell.A, schematic diagram of B and C. B, A549 cells were seeded in 24-well plates (5 × 10^4 cells/well) and cultured in DMEM containing 2% FBS. Hc-CATH (1.25, 2.5, and 5 μM) or same volume of PBS (peptide solvent) was added to cells and incubated at 37 °C for 24 h. The level of AXL was tested by Western blot. C, A549 cells were seeded in 8-well cover slip chambers (5 × 10^4 cells/well) and cultured in DMEM containing 2% FBS. Hc-CATH (1.25, 2.5, and 5 μM) or PBS was added to cells and incubated at 37 °C for 24 h. The level of AXL was tested by immunofluorescence staining. The scale bar represents 50 μm. D, schematic diagram of E and G. E and G, A549 cells were seeded in 24-well plates (5 × 10^4 cells/well) and cultured in DMEM containing 2% FBS. Hc-CATH (1.25, 2.5, and 5 μM) or PBS was added to cells and incubated at 37 °C for 2 h. Cells were washed with PBS and incubated with ZIKV (MOI = 1). After incubation at 37 °C for 2 h, cells were washed with PBS and cultured in DMEM containing 2% FBS.
Vero, A549, or U251 cells were incubated with peptide or PBS at 37 °C for 2 h. […]
The effect of Hc-CATH on AXL was further confirmed in A549 and U251 cells. A549 or U251 cells were incubated with Hc-CATH (1.25, 2.5, and 5 μM) or PBS at 37 °C for 24 h, and the level of AXL was detected by WB and IF, respectively. […]

TYRO3 = TYRO3 level in Vero cells (Western blot); assay type: cell-based, Chlorocebus aethiops; conditions: 6, 12, and 24 h post Hc-CATH addition
Protocol: (§1) Figure 3 Hc-CATH downregulates AXL in Vero cell.A, schematic diagram of B and C. B, Vero cells were seeded in 24-well plates (5 × 10^4 cells/well) and cultured in DMEM containing 2% FBS. Hc-CATH (1.25, 2.5, and 5 μM), AC5 (2.5 μM), LL-37 (2.5 μM), or same volume of PBS (peptide solvent) was added to cells. After culture at 37 °C for 6, 12, and 24 h, the levels of ZIKV entry factors, including AXL, TYRO3, and TIM-1, were tested by Western blot, respectively. C, Vero cells were seeded in 8-well cover slip chambers (5 × 10^4 cells/well) and cultured in DMEM containing 2% FBS. Hc-CATH (1.25, 2.5, and 5 μM), AC5 (2.5 μM), LL-37 (2.5 μM), or same volume of PBS (peptide solvent) was added to cells. After culture at 37 °C for 24 h, the level of AXL was tested by immunofluorescence staining. The scale bar represents 50 μm. D, schematic diagram of E. E, Vero cells were seeded in 24-well plates (5 × 10^4 cells/well) and cultured in DMEM containing 2% FBS. Hc-CATH (1.25, 2.5, and 5 μM), AC5 (2.5 μM), LL-37 (2.5 μM), or same volume of PBS (peptide solvent) was added to cells and incubated at 37 °C for 2 h. […] Ratio of AXL to β-actin was analyzed by ImageJ.
(§2) Vero cells were incubated with Hc-CATH (1.25, 2.5, and 5 μM), AC5 (2.5 μM), LL-37 (2.5 μM), or PBS (solvent of peptide). […] The levels of ZIKV entry factors, including AXL, TYRO3, and TIM-1, were detected by WB analysis. […]

AXL = AXL level in Vero cells (Western blot, immunofluorescence); assay type: cell-based, Chlorocebus aethiops
Protocol: as §1, §2

TIM-1 = TIM-1 level in Vero cells (Western blot); assay type: cell-based, Chlorocebus aethiops; conditions: 6, 12, and 24 h post Hc-CATH addition
Protocol: as §1, §2

ZIKV [2] = test: Prophylactic efficacy against ZIKV infection in mice; assay type: in vivo
Source text: At 4, 8, and 3 days post ZIKV inoculation, C57BL/6J mice, Ifnar1^−/− mice, and pregnant C57BL/6J mice were sacrificed, respectively. Tissues and fetal mice were collected for testing ZIKV RNA by qPCR. ns, not significant, ∗p < 0.05, ∗∗p < 0.01, and ∗∗∗p < 0.001. Hc-CATH, a cathelicidin antimicrobial peptide identified from the sea snake Hydrophis cyanocinctus; PFU, plaque-forming unit; qPCR, quantitative PCR; ZIKV, Zika virus.
C57BL/6J mice, Ifnar1^−/− mice, and pregnant C57BL/6J mice were sacrificed at 4, 8, and 3 days post ZIKV inoculation, respectively. Tissues and fetal mice were collected for testing ZIKV RNA level by qPCR.

Sequence: KFFKRLLKSVRRAVKKFRKKPRLIGLSTLL [Hc-CATH, cathelicidin antimicrobial peptide identified from the sea snake Hydrophis cyanocinctus]
- susceptibility of A549 cells to ZIKV (NS3 protein) (ZIKV [1]): decreased the susceptibility
- level of TYRO3 in Vero cells (TYRO3): did not obviously influence
- level of AXL in Vero cells (AXL; 1.25, 2.5, and 5 μM, 24 h, confirmed by immunofluorescence, relative to PBS): reduced the level of AXL
- level of AXL in Vero cells upon ZIKV infection (AXL; peptide 2 h, then ZIKV MOI = 1, 24 h post Hc-CATH addition): decreased the level of AXL
- level of TIM-1 in Vero cells (TIM-1): did not obviously influence
- anti-ZIKV efficacy in vivo compared with positive peptides (ZIKV [2]; C57BL/6J mice, prophylactic and therapeutic (Figs. 11E and 12E)): comparable with or even better than that of AC5 and LL-37
- ZIKV replication in C57BL/6J mice, prophylactic (ZIKV [2]; i.v. peptide 2 h before i.v. ZIKV 10^6 PFU/mouse, 4 days, tissue ZIKV RNA, qPCR): significantly decreased ZIKV replication
- ZIKV replication in Ifnar1−/− mice, prophylactic (ZIKV [2]; i.v. peptide 2 h before i.v. ZIKV 10^6 PFU/mouse, 8 days, tissue ZIKV RNA, qPCR): significantly decreased ZIKV replication
- ZIKV replication in fetal placenta and fetal mice, prophylactic (ZIKV [2]; pregnant C57BL/6J mice, i.v. peptide 2 h before i.v. ZIKV 10^6 PFU/mouse, 3 days, qPCR): significantly decreased ZIKV replication
